Active and inactive are the calls of the source. The rule behind the calls is not given here.
How the values were obtained:
[1] = Binding affinity to duplex DNA (unknown origin) assessed as change in melting temperature
[2] = Binding affinity to poly(dA-dT).poly(dA-dT) DNA (unknown origin) in CP buffer at pH 7.0 at 3 to 24 uM by CD spectroscopy
DNA = experiment: Binding affinity to calf thymus DNA in CP buffer at pH 7.0 at 3 to 24 uM by CD spectroscopy; format: nucleic-acid assay; settings: Bos taurus
[3] = Binding affinity to poly(dG-dC).poly(dG-dC) DNA (unknown origin) in CP buffer at pH 7.0 at 3 to 24 uM by CD spectroscopy

| Structure (SMILES) | ΔTm [1] [°C] | Activity [2] | Activity (DNA) | Activity [3] |
| --- | --- | --- | --- | --- |
| COc1ccc2c(CC(c3ccccc3)c3ccccc3)c3[n+](cc2c1OC)CCc1cc2c(cc1-3)OCO2 | 7 | Active | Active | Active |
| COc1ccc2c(CCC(c3ccccc3)c3ccccc3)c3[n+](cc2c1OC)CCc1cc2c(cc1-3)OCO2 | 16 | Active | Active | Active |
| COc1ccc2c(CCCCCC(c3ccccc3)c3ccccc3)c3[n+](cc2c1OC)CCc1cc2c(cc1-3)OCO2 | 16.6 | Active | Active | Active |
| COc1ccc2cc3[n+](cc2c1OC)CCc1cc2c(cc1-3)OCO2 | 13 |  |  |  |
| COc1ccc2c(C(c3ccccc3)c3ccccc3)c3[n+](cc2c1OC)CCc1cc2c(cc1-3)OCO2 | 6 | Active | Active | Active |
| COc1ccc2c(CCCC(c3ccccc3)c3ccccc3)c3[n+](cc2c1OC)CCc1cc2c(cc1-3)OCO2 | 19 | Active | Active | Active |
| COc1ccc2c(CCCCC(c3ccccc3)c3ccccc3)c3[n+](cc2c1OC)CCc1cc2c(cc1-3)OCO2 | 17 | Active | Active | Active |

Source: ChEMBL document CHEMBL3132805, “Synthesis of new 13-diphenylalkyl analogues of berberine and elucidation of their base pair specificity and energetics of DNA binding” (Medchemcomm, 2014)
